Reference: US20230203043A1, “NOVEL IMIDAZOPYRAZINE DERIVATIVES” (Hoffmann-La Roche Inc., priority 2020, published 2023)
Structures can show the parent of a compound that is named as a salt. Where two headings read alike, the source gives them in different places.

Tested on: Acinetobacter baumannii ATCC17961
Assay: Antimicrobial susceptibility testing: 90% growth inhibitory concentration (IC90) determination in Iso-Sensitest broth, OD600 growth
Type: cell-based
Outline: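 Twofold compound dilutions (e.g. 50 to 0.097 μM final) in Iso-Sensitest broth with ~5×10^(5) CFU/ml, 35±2 °C. OD600 read every 20 min over 16 h; IC90 from growth inhibition during logarithmic phase.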

[1] = Acinetobacter baumannii, ATCC17961, 16 h, strain ATCC 17961, OD600 growth over 16 h, read-out: A. baumannii ATCC 17961 IC90
[2] = Acinetobacter baumannii, ATCC17961, 16 h, read-out: A. baumannii ATCC 17961 IC90 (uM), strain ATCC 17961, OD600 growth over 16 h

Work on `CCc1cc(Nc2nccn3c(-c4cn(COC)nc4C(F)F)cnc23)ccc1C(=O)N1CCN(C(=O)C2CC(O)CN2)CC1` (centres unmarked) [Example 798, (4-(4-((3-(3-(difluoromethyl)-1-(methoxymethyl)-1H-pyrazol-4-yl)imidazo[1,2-a]pyrazin-8-yl)amino)-2-ethylbenzoyl)piperazin-1-yl)(4-hydroxypyrrolidin-2-yl)methanone] yielded an IC90 [1] of 2.36 µM.

`CCc1cc(Nc2nccn3c(-c4cn(CC#N)nc4C(F)F)cnc23)ccc1C(=O)N1CCN(C(=O)[C@H]2C[C@H](N)C2)CC1` [Example 800, 2-(4-(8-((4-(4-((1r,3r)-3-aminocyclobutane-1-carbonyl)piperazine-1-carbonyl)-3-ethylphenyl)amino)imidazo[1,2-a]pyrazin-3-yl)-3-(difluoromethyl)-1H-pyrazol-1-yl)acetonitrile] showed an IC90 [1] of 2.78 µM.

Molecule `CCc1cc(Nc2nccn3c(-c4cn(COC)nc4C(F)F)cnc23)ccc1C(=O)N1CCNCC1` [Example 801, (4-((3-(3-(difluoromethyl)-1-(methoxymethyl)-1H-pyrazol-4-yl)imidazo[1,2-a]pyrazin-8-yl)amino)-2-ethylphenyl) (piperazin-1-yl)methanone] has an IC90 [1] of 3 µM.

`CCc1cc(Nc2nccn3c(-c4cn(CC#N)nc4C(F)(F)F)cnc23)ccc1C(=O)NCCCNC(=O)CN` [Example 802, N-(3-(2-aminoacetamido)propyl)-4-((3-(1-(cyanomethyl)-3-(trifluoromethyl)-1H-pyrazol-4-yl)imidazo[1,2-a]pyrazin-8-yl)amino)-2-ethylbenzamide formate] was tested, and the IC90 [2] was 3.54 µM.

`CCc1cc(Nc2nccn3c(-c4cn(CC#N)nc4C(F)(F)F)cnc23)ccc1C(=O)N[C@H](C)C(=O)N[C@@H]1CCNC1` [Example 803, 4-[[3-[1-(cyanomethyl)-3-(trifluoromethyl)pyrazol-4-yl]imidazo[1,2-a]pyrazin-8-yl]amino]-2-ethyl-N-[(1R)-1-methyl-2-oxo-2-[[(3R)-pyrrolidin-3-yl]amino]ethyl]benzamide formate] gave an IC90 [2] of 3.77 µM.

Work on `CCc1cc(Nc2nccn3c(-c4c[nH]nc4C(F)(F)F)cnc23)ccc1C(=O)NCCNC(=O)[C@H]1C[C@@H](N)C1` [Example 804, N-(2-((1s,3s)-3-aminocyclobutane-1-carboxamido)ethyl)-2-ethyl-4-((3-(3-(trifluoromethyl)-1H-pyrazol-4-yl)imidazo[1,2-a]pyrazin-8-yl)amino)benzamide formate] yielded an IC90 (strain ATCC 17961, OD600 growth over 16 h, read-out: A. baumannii ATCC 17961 IC90) of 0.511 µM.

Molecule `O=C(c1ccc(Nc2nccn3c(-c4c[nH]nc4C(F)(F)F)cnc23)cc1F)N1CCNCC1` [Example 805, (2-fluoro-4-((3-(3-(trifluoromethyl)-1H-pyrazol-4-yl)imidazo[1,2-α]pyrazin-8-yl)amino)phenyl)(piperazin-1-yl)methanone hydrochloride] has an IC90 [1] of 0.88 µM.

In the case of `N[C@@H]1CC[C@H](C(=O)N2CCN(C(=O)c3ccc(Nc4nccn5c(-c6cn(CC(F)F)nc6C(F)(F)F)cnc45)cc3F)CC2)C1` [Example 806, (4-((1S,3R)-3-aminocyclopentane-1-carbonyl)piperazin-1-yl)(4-((3-(1-(2,2-difluoroethyl)-3-(trifluoromethyl)-1H-pyrazol-4-yl)imidazo[1,2-α]pyrazin-8-yl)amino)-2-fluorophenyl)methanone hydrochloride], the IC90 [1] is reported as 0.25 µM.

`N#CCn1cc(-c2cnc3c(Nc4ccc(C(=O)N5CCN(C(=O)[C@H]6CC[C@@H](N)C6)CC5)c(F)c4)nccn23)c(C(F)(F)F)n1` [Example 807, 2-(4-(8-((4-(4-((1S,3R)-3-aminocyclo-pentane-1-carbonyl)piperazin-1-carbonyl)-3-fluorophenyl)amino)imidazo [1,2-a]pyrazin-3-yl)-3-(trifluoromethyl)-1H-pyrazol-1-yl)acetonitrile hydrochloride] gave an IC90 [1] of 0.31 µM.

For `N[C@@H]1CC[C@H](C(=O)N2CCN(C(=O)c3ccc(Nc4nccn5c(-c6cn(CC7CC7)nc6C(F)(F)F)cnc45)cc3F)CC2)C1` [Example 808, (4-((1S,3R)-3-aminocyclo-pentane-1-carbonyl)piperazin-1-yl)(4-((3-(1-(cyclopropyl-methyl)-3-(trifluoromethyl)-1H-pyrazol-4-yl)imidazo[1,2-a]pyrazin-8-yl)amino)-2-fluorophenyl) methanone hydrochloride], the IC90 [1] was 0.26 µM.

For `NCCOCCNC(=O)c1ccc(Nc2nccn3c(-c4cn(CC(F)F)nc4C(F)(F)F)cnc23)cc1F` [Example 809, N-(2-(2-aminoethoxy)ethyl)-4-((3-(1-(2,2-difluoroethyl)-3-(trifluoromethyl)-1H-pyrazol-4-yl)imidazo[1,2-a]pyrazin-8-yl)amino)-2-fluorobenzamidei hydrochloride], the IC90 [2] was 0.17 µM.

`N#CCn1cc(-c2cnc3c(Nc4ccc(C(=O)NCCOCCN)c(F)c4)nccn23)c(C(F)(F)F)n1` [Example 810, N-(2-(2-aminoethoxy)ethyl)-4-((3-(1-(cyanomethyl)-3-(trifluoromethyl)-1H-pyrazol-4-yl)imrdazo[1,2-a]pyrazin-8-yl)amino)-2-fluorobenzamide hydrochloride] was tested, and the IC90 [1] was 0.25 µM.

In the case of `NCCOCCNC(=O)c1ccc(Nc2nccn3c(-c4cn(CC5CC5)nc4C(F)(F)F)cnc23)cc1F` [Example 811, N-(2-(2-aminoethoxy)ethyl)-4-((3-(1-(cyclopropyl-methyl)-3-(trifluoromethyl)-1H-pyrazol-4-yl)imidazo[1,2-a]pyrazin-8-yl)amino)-2-fluorobenzamide hydrochloride], the IC90 [1] is reported as 0.23 µM.

Molecule `NCC(=O)N1CCN(C(=O)c2ccc(Nc3nccn4c(-c5cn(CC(F)F)nc5C(F)(F)F)cnc34)cc2F)CC1` [Example 812, 2-amino-1-(4-(4-(3-(1-2,2-difluoroethyl)-3-(trifluoromethyl)-1H-pyrazol-4-yl)imidazo[1,2-a]pyrazin-8-yl)amino)-2-fluorobenzoyl) piperazin-1-yl) ethan-1-one hydrochloride] has an IC90 [1] of 0.2 µM.

`N#CCn1cc(-c2cnc3c(Nc4ccc(C(=O)N5CCN(C(=O)CN)CC5)c(F)c4)nccn23)c(C(F)(F)F)n1` [Example 813, 2-(4-(8-((3-fluoro-4-(4-glycylpiperazine-1-carbonyl)phenyl)amino)imidazo [1,2-a]pyrazin-3-yl)-3-(trifluoromethyl)-1H-pyrazol-1-yl)acetonitrile hydrochloride] was tested, and the IC90 [1] was 0.21 µM.

Molecule `NCC(=O)N1CCN(C(=O)c2ccc(Nc3nccn4c(-c5cn(CC6CC6)nc5C(F)(F)F)cnc34)cc2F)CC1` [Example 814, 2-amino-1-(4-(4-((3-(1-(cyclopropyl-methyl)-3-(trifluoromethyl)-1H-pyrazol-4-yl)imidazo[1,2-a]pyrazin-8-yl)amino)-2-fluorobenzoyl)piperazin-1-yl)ethan-1-one hydrochloride] has an IC90 [1] of 0.14 µM.

With `N#CCn1cc(-c2cnc3c(Nc4ccc(C(=O)NCCNCC(=O)NCCN)c(Cl)c4)nccn23)c(C(F)(F)F)n1` [Example 815, N-(2-((2-((2-aminoethyl)amino)-2-oxoethyl)amino)ethyl)-2-chloro-4-((3-(1-(cyanomethyl)-3-(trifluoromethyl)-1H-pyrazol-4-yl)imidazo[1,2-α]pyrazin-8-yl)amino)benzamide formate] the IC90 [1] was 0.18 µM.

`N#CCn1cc(-c2cnc3c(Nc4ccc(C(=O)NCCNCC(=O)NC5CNC5)c(Cl)c4)nccn23)c(C(F)(F)F)n1` [Example 816, N-(2-(2-(azetidin-3-ylamino)-2-oxoethyl)amino) ethyl)-2-chloro-4-((3-(1-(cyanomethyl)-3-(trifluoromethyl)-1H-pyrazol-4-yl)imidazo[1,2-a]pyrazin-8-yl)amino) benzamide formate] was tested, and the IC90 [1] was 0.29 µM.

`N#CCn1cc(-c2cnc3c(Nc4ccc(C(=O)NCCNCC(=O)N[C@H]5CCNC5)c(Cl)c4)nccn23)c(C(F)(F)F)n1` [Example 817, (S)-2-chloro-4-((3-(1-(cyanomethyl)-3-(trifluoromethyl)-1H-pyrazol-4-yl)imidazo[1,2-a]pyrazin-8-yl)amino)-N-(2-((2-oxo-2-(pyrrolidin-3-ylamino)ethyl)amino)ethyl) benzamide formate] was tested, and the IC90 [1] was 0.18 µM.

`N#CCn1cc(-c2cnc3c(Nc4ccc(C(=O)NCCNCC(=O)N[C@@H]5CCNC5)c(Cl)c4)nccn23)c(C(F)(F)F)n1` [Example 818, (R)-2-chloro-4-((3-(1-(cyanomethyl)-3-(trifluoromethyl)-1H-pyrazol-4-yl)imidazo[1,2-a]pyrazin-8-yl)amino)-N-(2-((2-oxo-2-(pyrrolidin-3-ylamino)ethyl)amino)ethyl) benzamide formate] showed an IC90 [1] of 0.15 µM.

`N#CCn1cc(-c2cnc3c(Nc4ccc(C(=O)NCCNCC(=O)NCCCN)c(Cl)c4)nccn23)c(C(F)(F)F)n1` [Example 819, N-(2-((2-((3-aminopropyl)amino)-2-oxoethyl)amino)ethyl)-2-chloro-4-((3-(1-(cyanomethyl)-3-(trifluoromethyl)-1H-pyrazol-4-yl)imidazo[1,2-a]pyrazin-8-yl)amino) benzamide formate] was tested, and the IC90 [1] was 0.18 µM.

Work on `NCCNC(=O)CNCCNC(=O)c1ccc(Nc2nccn3c(-c4cn(CC(F)F)nc4C(F)(F)F)cnc23)cc1Cl` [Example 820, N-(2-((2-((2-aminoethyl)amino)-2-oxoethyl)amino)ethyl)-2-chloro-4-(3-(1-(2,2-difluoroethyl)-3-(trifluoromethyl)-1H-pyrazol-4-yl)imidazo[1,2-a]pyrazin-8-yl)amino) benzamide formate] yielded an IC90 [1] of 0.15 µM.

Work on `O=C(CNCCNC(=O)c1ccc(Nc2nccn3c(-c4cn(CC(F)F)nc4C(F)(F)F)cnc23)cc1Cl)NC1CNC1` [Example 821, N-(2-((2-(azetidin-3-ylamino)-2-oxoethyl)amino)ethyl)-2-chloro-4-(3-(1-(2,2-difluoroethyl)-3-(trifluoromethyl)-1H-pyrazol-4-yl)imidazo[1,2-a]pyrazin-8-yl)amino) benzamide formate] yielded an IC90 [1] of 0.16 µM.
